Source: ChEMBL document CHEMBL3044556, “Managing weeds with drip-applied herbicides in tomato” (2008)

Tests used:
Format in all cases: functional
Eleusine indica [1] = experiment: Pre-emergence herbicidal activity against Eleusine indica in tomato field assessed as number of weeds at 1.14 kg/ha applied through drip lines/backpack-spray on week 3 to 4 before transplanting measured 12 weeks after treatment (reference value: 9 plants/m2)
Digitaria [2] = experiment: Pre-emergence herbicidal activity against Digitaria spp. in tomato field assessed as number of weeds at 1.14 kg/ha applied through drip lines/backpack-spray on week 3 to 4 before transplanting measured 12 weeks after treatment (reference value: 9 plants/m2)
Echinochloa colona [3] = experiment: Pre-emergence herbicidal activity against Echinochloa colona in tomato field assessed as number of weeds at 1.14 kg/ha applied through drip lines/backpack-spray on week 3 to 4 before transplanting measured 12 weeks after treatment (reference value: 9 plants/m2)
Amaranthus dubius [4] = experiment: Pre-emergence herbicidal activity against Amaranthus dubius in tomato field assessed as number of weeds at 1.14 kg/ha applied through drip lines/backpack-spray on week 3 to 4 before transplanting measured 12 weeks after treatment (reference value: 9 plants/m2)
Boerhavia erecta [5] = experiment: Pre-emergence herbicidal activity against Boerhavia erecta in tomato field assessed as number of weeds at 1.14 kg/ha applied through drip lines/backpack-spray on week 3 to 4 before transplanting measured 12 weeks after treatment (reference value: 9 plants/m2)
Corynandra viscosa [6] = experiment: Pre-emergence herbicidal activity against Cleome viscosa in tomato field assessed as number of weeds at 1.14 kg/ha applied through drip lines/backpack-spray on week 3 to 4 before transplanting measured 12 weeks after treatment (reference value: 9 plants/m2)
Portulaca oleracea [7] = experiment: Pre-emergence herbicidal activity against Portulaca oleracea in tomato field assessed as number of weeds at 1.14 kg/ha applied through drip lines/backpack-spray on week 3 to 4 before transplanting measured 12 weeks after treatment (reference value: 9 plants/m2)
Trianthema [8] = experiment: Pre-emergence herbicidal activity against Trianthema spp. in tomato field assessed as number of weeds at 1.14 kg/ha applied through drip lines/backpack-spray on week 3 to 4 before transplanting measured 12 weeks after treatment (reference value: 9 plants/m2)
Cyperus [9] = experiment: Pre-emergence herbicidal activity against Cyperus in tomato field assessed as number of weeds at 1.14 kg/ha applied through drip lines/backpack-spray on week 3 to 4 before transplanting measured 12 weeks after treatment (reference value: 5 plants/m2)
Poaceae [10] = experiment: Pre-emergence herbicidal activity against Poaceae (grass family) in tomato field assessed as number of weeds at 1.14 kg/ha applied through drip lines/backpack-spray on week 3 to 4 before transplanting measured 12 weeks after treatment (reference value: 8 plants/m2)
Eleusine indica [11] = experiment: Pre-emergence herbicidal activity against Eleusine indica in tomato field assessed as number of weeds at 1.14 kg/ha applied through drip lines/backpack-spray on week 3 to 4 before transplanting measured 7 weeks after treatment (reference value: 9 plants/m2)
Trianthema [12] = experiment: Pre-emergence herbicidal activity against Trianthema spp. in tomato field assessed as number of extra-large fruits at 1.14 kg/ha applied through drip lines/backpack-spray on week 3 to 4 before transplanting (reference value: 21.3 x 10 '3 ha); conditions: pooled result: one value given for 8 cell lines, strains, targets or settings
Amaranthus dubius [13] = experiment: Pre-emergence herbicidal activity against Amaranthus dubius in tomato field assessed as increase in extra-large fruit weight at 1.14 kg/ha applied through drip lines/backpack-spray on week 3 to 4 before transplanting relative to untreated control
Eleusine indica [14] = experiment: Pre-emergence herbicidal activity against Eleusine indica in tomato field assessed as increase in total marketable weight at 1.14 kg/ha applied through drip lines/backpack-spray on week 3 to 4 before transplanting relative to untreated control; conditions: pooled result: one value given for 8 cell lines, strains, targets or settings
Eleusine indica [15] = experiment: Pre-emergence herbicidal activity against Eleusine indica in tomato field assessed as increase in extra-large fruit weight at 1.14 kg/ha applied through drip lines/backpack-spray on week 3 to 4 before transplanting relative to untreated control
Digitaria [16] = experiment: Pre-emergence herbicidal activity against Digitaria spp. in tomato field assessed as increase in extra-large fruit weight at 1.14 kg/ha applied through drip lines/backpack-spray on week 3 to 4 before transplanting relative to untreated control
Echinochloa colona [17] = experiment: Pre-emergence herbicidal activity against Echinochloa colona in tomato field assessed as increase in extra-large fruit weight at 1.14 kg/ha applied through drip lines/backpack-spray on week 3 to 4 before transplanting relative to untreated control
Trianthema [18] = experiment: Pre-emergence herbicidal activity against Trianthema spp. in tomato field assessed as increase in extra-large fruit weight at 1.14 kg/ha applied through drip lines/backpack-spray on week 3 to 4 before transplanting relative to untreated control
Portulaca oleracea [19] = experiment: Pre-emergence herbicidal activity against Portulaca oleracea in tomato field assessed as increase in extra-large fruit weight at 1.14 kg/ha applied through drip lines/backpack-spray on week 3 to 4 before transplanting relative to untreated control
Corynandra viscosa [20] = experiment: Pre-emergence herbicidal activity against Cleome viscosa in tomato field assessed as number of weeds at 1.14 kg/ha applied through drip lines/backpack-spray on week 3 to 4 before transplanting measured 7 weeks after treatment (reference value: 9 plants/m2)
Portulaca oleracea [21] = experiment: Pre-emergence herbicidal activity against Portulaca oleracea in tomato field assessed as number of weeds at 1.14 kg/ha applied through drip lines/backpack-spray on week 3 to 4 before transplanting measured 7 weeks after treatment (reference value: 9 plants/m2)
Trianthema [22] = experiment: Pre-emergence herbicidal activity against Trianthema spp. in tomato field assessed as number of weeds at 1.14 kg/ha applied through drip lines/backpack-spray on week 3 to 4 before transplanting measured 7 weeks after treatment (reference value: 9 plants/m2)
Poaceae [23] = experiment: Pre-emergence herbicidal activity against Poaceae (grass family) in tomato field assessed as number of weeds at 1.14 kg/ha applied through drip lines/backpack-spray on week 3 to 4 before transplanting measured 7 weeks after treatment (reference value: 6 plants/m2)
Cyperus [24] = experiment: Pre-emergence herbicidal activity against Cyperus in tomato field assessed as number of weeds at 1.14 kg/ha applied through drip lines/backpack-spray on week 3 to 4 before transplanting measured 7 weeks after treatment (reference value: 3 plants/m2)
Digitaria [25] = experiment: Pre-emergence herbicidal activity against Digitaria spp. in tomato field assessed as number of weeds at 1.14 kg/ha applied through drip lines/backpack-spray on week 3 to 4 before transplanting measured 7 weeks after treatment (reference value: 9 plants/m2)
Echinochloa colona [26] = experiment: Pre-emergence herbicidal activity against Echinochloa colona in tomato field assessed as number of weeds at 1.14 kg/ha applied through drip lines/backpack-spray on week 3 to 4 before transplanting measured 7 weeks after treatment (reference value: 9 plants/m2)
Amaranthus dubius [27] = experiment: Pre-emergence herbicidal activity against Amaranthus dubius in tomato field assessed as number of weeds at 1.14 kg/ha applied through drip lines/backpack-spray on week 3 to 4 before transplanting measured 7 weeks after treatment (reference value: 9 plants/m2)
Boerhavia erecta [28] = experiment: Pre-emergence herbicidal activity against Boerhavia erecta in tomato field assessed as number of weeds at 1.14 kg/ha applied through drip lines/backpack-spray on week 3 to 4 before transplanting measured 7 weeks after treatment (reference value: 9 plants/m2)
Eleusine indica [29] = experiment: Pre-emergence herbicidal activity against Eleusine indica in tomato field assessed as total number of fruits at 1.14 kg/ha applied through drip lines/backpack-spray on week 3 to 4 before transplanting (reference value: 49.5 x 10 '3 ha); conditions: pooled result: one value given for 8 cell lines, strains, targets or settings
Corynandra viscosa [30] = experiment: Pre-emergence herbicidal activity against Cleome viscosa in tomato field assessed as increase in extra-large fruit weight at 1.14 kg/ha applied through drip lines/backpack-spray on week 3 to 4 before transplanting relative to untreated control
Boerhavia erecta [31] = experiment: Pre-emergence herbicidal activity against Boerhavia erecta in tomato field assessed as increase in extra-large fruit weight at 1.14 kg/ha applied through drip lines/backpack-spray on week 3 to 4 before transplanting relative to untreated control

CCc1cccc(C)c1N(C(=O)CCl)[C@@H](C)COC [S-METOLACHLOR]
Activity (Eleusine indica [1]): 2 /m2
Activity (Digitaria [2]): 2 /m2
Activity (Echinochloa colona [3]): 2 /m2
Activity (Amaranthus dubius [4]): 2 /m2
Activity (Boerhavia erecta [5]): 2 /m2
Activity (Corynandra viscosa [6]): 2 /m2
Activity (Portulaca oleracea [7]): 2 /m2
Activity (Trianthema [8]): 2 /m2
Activity (Cyperus [9]): 9 /m2
Activity (Poaceae [10]): 3 /m2
Activity (Eleusine indica [11]): 3 /m2
Activity (Trianthema [12]): 35 10^3 fruits/ha
Activity (Amaranthus dubius [13]): 75%
Activity (Eleusine indica [14]): 57%
Activity (Eleusine indica [15]): 75%
Activity (Digitaria [16]): 75%
Activity (Echinochloa colona [17]): 75%
Activity (Trianthema [18]): 75%
Activity (Portulaca oleracea [19]): 75%
Activity (Corynandra viscosa [20]): 3 /m2
Activity (Portulaca oleracea [21]): 3 /m2
Activity (Trianthema [22]): 3 /m2
Activity (Poaceae [23]): 0 /m2
Activity (Cyperus [24]): 2 /m2
Activity (Digitaria [25]): 3 /m2
Activity (Echinochloa colona [26]): 3 /m2
Activity (Amaranthus dubius [27]): 3 /m2
Activity (Boerhavia erecta [28]): 3 /m2
fruit count (Eleusine indica [29]): 70.8 10^3 fruits/ha
Activity (Corynandra viscosa [30]): 75%
Activity (Boerhavia erecta [31]): 75%
